Results: patent US12708676B2, “Phosphate compounds for detecting neurological disorders” (Amydis, Inc., priority 2018, dated 2026)

Tests used:
[1] = target: aggregated Aβ (Homo sapiens, UniProt P05067); assay: Fluorescent detection of Aβ in vitro; format: binding
[2] = target: Aβ plaques (Homo sapiens, UniProt P05067); assay: Example 7: ex vivo staining of human Alzheimer's disease tissue, co-localization with 6E10
[3] = target: alpha-synuclein (Homo sapiens, UniProt P37840); assay: Example 9: ex vivo flatmount staining of human retinas with Compound 7 and SYN-1 Ab; format: binding; details: for Average No. of co-stained objects / Average No. of singly-stained objects: PD retina, per ~250,000 μm^2 area; for Average No. of co-stained objects: co-stained with SYN-1; for Co-localization with alpha-synuclein (SYN-1 Ab): 60 μM Compound 7
Procedure: To understand if Compound 7 (active drug) can detect retinal α-syn in human eyes, human retinal tissue was extracted post-mortem from both a healthy patient and a patient diagnosed with Parkinson's Disease, and stained with Compound 7, DAPI and a SYN1 antibody.
Eye dissection: Cornea, iris and lens were removed from the eye cup and the eye placed into 4% PFA for 1 hour. […] The different regions were mounted on separate slides.
Flatmount retinal staining: The tissue was fixed in room temperature 4% PFA for 20 minutes, washed, permeabilized, blocked (2.5% goat serum in PBST), stained with Alpha-synuclein antibody (SYN-1) at a dilution of 1:1000 and incubate overnight at 4° C., washed with PBST (3 times for 5 minutes), incubated with secondary antibody (Alexa fluor 647 anti-mouse) in dark for 1 hr at RT. The tissue was then washed with PB ST (3 times for 5 minutes), incubated with 60 μM Compound 7 for 30 minutes at RT, washed with PBS (3 times for 10 minutes), incubate with DAPI (300 nM or 100 ng/mL) in dark for 10 minutes, and washed with PBS (3 times for 5 minutes). The tissue was then mounted using antifade DAKO mounting media.
To determine the number of objects co-stained with Compound 7 and SYN1, the average number of objects co-stained with Compound 7 and SYN1 was quantified. This was completed for each quadrant of both the left and right eye (Table 10 and Table 11).

Chain of Aβ plaques (P05067 672-713 limits assumed): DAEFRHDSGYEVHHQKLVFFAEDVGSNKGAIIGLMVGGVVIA
Chain of aggregated Aβ (P05067 672-711 limits assumed): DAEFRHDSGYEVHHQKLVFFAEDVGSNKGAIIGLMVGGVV

SMILES: N#C/C(=C\c1ccc2cc(N3CCCCC3)ccc2c1)C(=O)NCCOCCOCCO [Compound 7, (E)-2-cyano-N-(2-(2-(2-hydroxyethoxy)ethoxy)ethyl)-3-(6-(piperidin-1-yl)naphthalen-2-yl)acrylamide]
- Detection of aggregated Aβ in vitro [1]: demonstrated the ability to detect aggregated Aβ
- Binding to Aβ plaques in human tissue ([2]; brain and retinal tissue of human Alzheimer's patients): bind to Aβ plaques in both brain and retinal tissue
- Detection of aggregated Aβ ex vivo ([2]; ex vivo, human Alzheimer's brain tissue): demonstrated the ability to detect aggregated Aβ
- Average No. of co-stained objects ([3]; left eye, Inferior): 13.6
- Average No. of singly-stained objects ([3]; left eye, Inferior): 0.87
- Average No. of co-stained objects ([3]; left eye, Nasal): 13
- Average No. of singly-stained objects ([3]; left eye, Nasal): 0.75
- Average No. of co-stained objects ([3]; left eye, Superior): 20
- Average No. of singly-stained objects ([3]; left eye, Superior): 0.25
- Average No. of co-stained objects ([3]; left eye, Temporal): 12.37
- Average No. of singly-stained objects ([3]; left eye, Temporal): 0.5
- Average No. of co-stained objects ([3]; right eye, Inferior): 12.12
- Average No. of singly-stained objects ([3]; right eye, Inferior): 0.75
- Average No. of co-stained objects ([3]; right eye, Nasal): 14.3
- Average No. of singly-stained objects ([3]; right eye, Nasal): 1.75
- Average No. of co-stained objects ([3]; right eye, Superior): 16
- Average No. of singly-stained objects ([3]; right eye, Superior): 0.5
- Average No. of co-stained objects ([3]; right eye, Temporal): 11.62
- Average No. of singly-stained objects ([3]; right eye, Temporal): 0.5
- Co-localization with alpha-synuclein (SYN-1 Ab) ([3]; post-mortem retinas of healthy human patient): very little or no co-localization
- Co-localization with alpha-synuclein (SYN-1 Ab) ([3]; post-mortem retinas of human PD patient): co-localization of Compound 7 and Alpha-Synuclein deposits (SYN-1 Ab) in all regions
